In patent publication US6649605B2, “Treatment of tension-type headaches with NMDA receptor antagonists” (Head Explorer A/S, priority 1996, dated 2003):
“And” between values parts separate entries of the source, which are not always exact repeats. Equal values may be shown once. “Also recorded” adds a separate entry of the source.

Tests used:
[1] = system: trapezius muscle of patients with chronic tension-type headache; assay: Muscle hardness of the trapezius muscle (hardness meter) after L-NMMA; assay type: in vivo, human; conditions: 6 mg/kg i.v.
Description: Sixteen patients with a diagnosis of chronic tension-type headache according to the criteria of the International Headache Society (Headache Classification Committee 1988) were included (Table XVII). Five of the patients had coexisting infrequent migraine (<four days/year). The patients were recruited from the out-patient headache clinic at Glostrup University Hospital without respect to presence or absence of myofascial tenderness. All patients underwent a general physical and a neurological examination and completed a diagnostic headache diary during a 4-week run-in period (Russell et al. 1992). […]
Muscle hardness. The muscle hardness of the trapezius muscle was measured with a hardness meter, which has previously been described in detail (Horikawa et al. 1993). […]
The recordings were performed in a standardized manner by the same observer, a trained technician (HA), throughout the study. All parameters were recorded at baseline, 60 and 120 minutes after start of infusion. […] Headache intensity was measured on a 100 mm Visual Analog Scale (VAS) (0-no headache and 100-worst imaginable headache) before, during and after start of infusion.
Muscle hardness. The muscle hardness was measured at a standard anatomical point on the trapezius muscle On the non-dominant side, as previously described (Ashina et al. 1998b). […] The muscle hardness was calculated as the mean of five consecutive determinations. […]

[2] = system: patients with chronic tension-type headache; assay: Blood pressure, pulse rate, adverse events and rescue medication after L-NMMA infusion; assay type: in vivo, human
Procedure: Randomization (Med.Stat) and drug preparation were performed by staff not involved in the study. The medication was given over 15 minutes into an antecubital vein (Braun Perfusor). The following parameters were measured at baseline and […] post administration: headache intensity on a 100-mm Visual Analog Scale (VAS) (0-no headache and 100-worst imaginable headache) and on a Verbal Rating Scale (VRS) from 0-10 (0-no headache; 5-moderate headache; 10-worst imaginable headache). Blood pressure and pulse rate were measured 5 minutes prior to administration of treatment and at 5, 10, 15, 20, 25, 30, 60, 90 and 120 minutes post administration. Twelve-lead ECG was monitored continuously. Any adverse events were recorded. Patient with unrelieved headache at 120 minutes post treatment were allowed to take rescue medication. All patients were asked to record details of the following on a diary card at 4, 8, 12, 16, 20 and 24 hours post administration, headache intensity on VRS, any medication taken and adverse events. Between 4-7 days after each treatment, the patients returned to the clinic, the diary cards were collected and any adverse events were noted.
Primary endpoint was the reduction of pain intensity over time on active treatment compared to placebo. The secondary endpoints were reduction of pain intensity at 30, 60, 90 and 120 minutes post dosing on VAS and VRS compared to pre-treatment pain score within each treatment. Comparison of pain intensity on VAS, blood pressure and pulse rate over time between treatments were performed With ANOVA. Paired-Samples T Test was used to compare pre-treatment pain score on VAS with pain score at 30, 60, 90, 120 minutes post dosing within each treatment. The sum of differences between the pre-treatment VRS score and the VRS score at 30, 60, 90, 120 minutes post dosing was calculated in order to obtained a summary measure of pain score for each treatment (Matthews et al. 1990). These sums of differences for each treatment were compared by Wilcoxon Signed Rank test. Five percent was accepted as level of significance.

For `CN=C(N)NCCC[C@H](N)C(=O)O.Cl` [L-NMMA, L-N^G methyl arginine hydrochloride], the “Muscle hardness (summary score) compared with placebo” value ([1]; p=0.04, hydrochloride) was “significantly more reduced; also recorded: reduces muscle hardness; also recorded: reduced significantly more; also recorded: significantly reduced”, the “Muscle hardness compared with baseline” value ([1]; p=0.04 and p<0.05) was “significantly reduced at 60 and 120 minutes” and the “Subjective symptoms reported (number of patients)” value ([2]; 6 mg/kg i.v.) was “tiredness (2), dryness of the mouth (3), drowsiness (1), exhaustion (1), nausea (1) and a feeling of tingling in arm (1)”. The “MAP and pulse rate over time compared with placebo” value ([2]; 6 mg/kg i.v., p=0.0001 and p=0.0001) was “changed significantly over time”, the “Time at which the difference in MAP and pulse rate to placebo disappeared” value ([2]; after start of infusion) was 60 min and the “Maximum decrease in pulse rate” value ([2]; occurred 10 minutes post dosing, 6 mg/kg i.v., hydrochloride, 6 mg/kg) was 16±2% and 16%. The “Maximum increase in mean arterial blood pressure (MAP)” value ([2]; occurred 15 minutes post dosing, 6 mg/kg i.v., hydrochloride, 6 mg/kg) was 12±2% and 12%, the “Patients who reported subjective symptoms in relation to the infusion” value ([2]; of 16 patients, 6 mg/kg i.v.) was “Seven” and the “Patients who used simple analgesics as rescue medication” value ([2]; of 16 patients, 7 on placebo) was “Three”.
